The test system of one assay is diabetic mice model. Nature of the assay: HbA1c in diabetic mice model (db/db). The format is in vivo. The conditions noted are these: PO 7 or 20 mg/kg BID or 40 mg/kg QD, 28 days of dosing, FIG. 1. As to the method: Compound #16 has been tested on a diabetic mice model. […] Therefore, this compound can be useful for treating diabetes.
Male db/db (BKS.Cg-m 1/1 Leprdb/J) mice aged 6 weeks at the time of arrival were obtained from Janvier (France) and acclimatized to their new environment. Animals were housed in groups of 2 in a light, temperature and humidity-controlled room (a 12-hour light/dark cycle, with lights off at 4 PM; 23+/−1° C.; 50% relative humidity). All animals had free access to standard Purina 5008 chow (LabDiet) and domestic-quality tap water.
The study was initiated in mice aged 8 weeks. Three days before first dosing, a blood sample was collected for determination of baseline blood glucose and hemoglobin A1c (HbA1c) levels. Based on these baseline HbA1c and fed blood glucose levels, mice were stratified into treatment groups (n=10) receiving vehicle (CMC (1.5% W/V) Sigma (ref.C9481), Tween 80 (0.25% V/V) Sigma (ref.59924) in water) or orally administered Compound #16 as follows: • 7 mg/kg, PO BID (twice a day) • 20 mg/kg, PO BID (twice a day) • 40 mg/kg PO QD (Once a day)
Throughout the experimental period, body weight and food and water intake were measured daily in the morning.
Animals were terminated after a total of 28 days of dosing. […]

Another assay relates to PRXF PC-3M. Nature of the assay: Cytotoxicity, propidium iodide based monolayer assay, PRXF PC-3M. Format: cell-based. The conditions noted are these: Homo sapiens, 96 h; PRXF PC-3M (prostate adeno carcinoma), four days of treatment, T/C=50%; read-out: Absolute IC50. The method, then: (§1) The cytotoxicity was tested for compounds of the invention on five different cell-lines, namely LXFL 1121, MAXF 401, MMXF L-636, PRXF PC-3M and UXF 1138 which are respectively lung large cell carcinoma, breast adeno carcinoma, multiple myeloma, prostate adeno carcinoma and uterine sarcoma.
(§2) A working stock solution of the test compounds was prepared in DMSO at a concentration of 33 mM or 8.25 mM, and small aliquots were stored at −20° C. On each day of an experiment, a frozen aliquot of the working stock solution was thawed and stored at room temperature prior to and during treatment.
(§3) All liquid handling steps were performed using the Tecan Freedom EVO 200 platform. First, serial 2-fold dilutions of the 33 mM DMSO working stock solution were done in DMSO. […]
(§4) A modified propidium iodide (PI) based monolayer assay was used to assess the anti-cancer activity of the compounds. Briefly, cells were harvested from exponential phase cultures, counted and plated in 96 well flat-bottom microtiter plates at a cell density of 4,000 to 40,000 cells/well dependent on the cell line's growth rate. […] After an incubation period of 1-2 hours at room temperature, fluorescence (FU) was measured using the Enspire Multimode Plate Reader (excitation λ=530 nm, emission λ=620 nm) to quantify the amount of attached viable cells. […]

A further assay relates to UXF 1138. The experiment in a line: Cytotoxicity, propidium iodide based monolayer assay, UXF 1138. Format: cell-based. The settings on record: 96 h; UXF 1138 (uterine sarcoma), four days of treatment, T/C=50%; read-out: Absolute IC50. The method, then:
as §1, §2, §3, §4

1 compound from US11767316B2, “Non-fused thiophene derivatives and their uses” (ENYO PHARMA, priority 2018, dated 2023) can be followed below.

Molecules are shown by their SMILES.

Regarding `O=C(Nc1scc(C2CCc3ccccc3C2)c1C(=O)O)c1ccccc1` (stereo not drawn) [#16], the “Change of glycated hemoglobin, HbA1C” value with diabetic mice model was “capable of reducing glycated hemoglobin”. The results for the concentration for half-maximal inhibition (IC50) in the assay with PRXF PC-3M and with UXF 1138 were 485 nM and 324 nM, respectively.
